Data from patent US4621101A, “Pharmaceutical compositions with antianginal activity” (Egis Gyogyszergyar, priority 1984, dated 1986).
Like-named read-outs stand apart in the source and are kept apart here.

What was measured:
[1] = Acute intravenous toxicity (LD50) and therapeutic index, Table II; settings: in vivo; for selectivity ratio: from LD50 and ED50, iv.; for LD50: iv.
[2] = Antianginal effect in rats after intravenous administration, method of Nieschulz, Popendiker and Hofmann; assay type: in vivo; settings: Rattus norvegicus

| SMILES | selectivity ratio [1] | LD50 [1] | ED50 ([2]; read-out: ED50) | ED50 [2] |
| --- | --- | --- | --- | --- |
| CN(C)CCO/N=C1\CCCCCC1Cc1ccccc1 (stereo not drawn) [compound D, 2-benzyl-1-[(E)-(2-dimethylamino-ethoxyimino)]-cycloheptane] | 76.9 | 40 mg/kg | 0.52 mg/kg | – |
| CC(C)N(CCCO/N=C1\CCCC\C1=C/c1ccc(Cl)cc1)C(C)C [compound F, 2-[(E)-(4-chlorophenyl)-methylene]-1-[(E)-(3-diisopropylamino)-propyloxyimino]-cyclohexane] | 120 | 42 mg/kg | 0.35 mg/kg | – |
| CC(C)N(CCCO/N=C1\CCCC\C1=C/c1ccccc1)C(C)C [compound G, 2-[(E)-phenylmethylene]-1-[(E)-(3-diisopropylaminopropyloxyimino)]-cyclohexane] | 32.9 | 12.5 mg/kg | 0.38 mg/kg | – |
| CC(Cc1ccccc1)NCCC(c1ccccc1)c1ccccc1 (stereo not drawn) [Prenylamine, N-3,3-di-phenylpropyl-1-methylphenyl-ethylamine, reference compound] | 1.77 | 11.5 mg/kg | – | 6.5 mg/kg |
